# In patent US6103883A (priority 1999, dated 2000):
# Target: T1, verotoxin binding to Gb3 (Enterobacteria phage H19B, UniProt P69179)
# Settings: competition with radiolabelled verotoxin 1; FIG. 5C
row,Structure (SMILES),inhibition of verotoxin binding to Gb3
1,CN(C)C(CO[C@@H]1O[C@H](CO)[C@@H](O[C@@H]2O[C@H](CO)[C@H](O[C@H]3O[C@H](CO)[C@H](O)[C@H](O)[C@H]3O)[C@H](O)[C@H]2O)[C@H](O)[C@H]1O)C(O)C(=O)NC12CC3CC(CC(C3)C1)C2 (stereo partly shown) [Compound A],effective inhibition
2,"OC[C@H]1O[C@H](O[C@@H]2[C@H](O)[C@@H](O)[C@H](O[C@H]3[C@H](O)[C@@H](O)C(O)O[C@@H]3CO)O[C@@H]2CO)[C@H](O)[C@@H](O)[C@H]1O (stereo partly shown) [Gb3 -sugar, globotriaose, reference compound]",virtually no inhibition
3,CN(C)C(CO[C@@H]1O[C@H](CO)[C@@H](O[C@@H]2O[C@H](CO)[C@H](O[C@H]3O[C@H](CO)[C@H](O)[C@H](O)[C@H]3O)[C@H](O)[C@H]2O)[C@H](O)[C@H]1O)C(O)C(=O)Nc1c2c(nc3ccccc13)CCCC2 (stereo partly shown) [Compound B],effective inhibition

# Target: T1, verotoxin binding to Gb3
# Settings: spectrophotometric detection; FIG. 6B
row,Structure (SMILES),inhibition of binding of verotoxin to Gb3
1,CCCCCCCCCCCCC/C=C/[C@@H](O)[C@H](CO[C@@H]1O[C@H](CO)[C@H](O)[C@H](O)[C@H]1O)NC(=O)CC12CC3CC(CC(C3)C1)C2 [Compound B1],do not appear to be effective inhibitors
2,CCCCCCCCCCCCC/C=C/[C@@H](O)[C@H](CO[C@@H]1O[C@H](CO)[C@@H](O[C@@H]2O[C@H](CO)[C@H](O[C@H]3O[C@H](CO)[C@H](O)[C@H](O)[C@H]3O)[C@H](O)[C@H]2O)[C@H](O)[C@H]1O)NC(=O)CC12CC3CC(CC(C3)C1)C2 [Compound A3],effective water-soluble inhibitor
3,O=C(CC12CC3CC(CC(C3)C1)C2)NC(CO[C@@H]1O[C@H](CO)[C@H](O)[C@H](O)[C@H]1O)C(O)C(=O)O (stereo partly shown) [Compound B2],do not appear to be effective inhibitors
4,O=C(CC12CC3CC(CC(C3)C1)C2)NC(CO[C@@H]1O[C@H](CO)[C@@H](O[C@@H]2O[C@H](CO)[C@H](O[C@H]3O[C@H](CO)[C@H](O)[C@H](O)[C@H]3O)[C@H](O)[C@H]2O)[C@H](O)[C@H]1O)C(O)C(=O)O (stereo partly shown) [Compound A1],do not appear to be effective inhibitors
